Peptide text beside a SMILES is read from it.
Legend:
[1] = biological target: Human immunodeficiency virus type 1 integrase (Human immunodeficiency virus 1) (UniProt Q7ZJM1); assay: Binding affinity to HIV-1 integrase measured after overnight incubation by chemiluminescence analysis relative to IN 174-188; parameters: concentration or dose not given beside the values
[2] = system: Human immunodeficiency virus 1; assay: Binding affinity to HLT-tagged HIV-1 Rev measured after overnight incubation by chemiluminescence analysis relative to IN 174-188; parameters: concentration or dose not given beside the values

Sequence of Human immunodeficiency virus type 1 integrase (Human immunodeficiency virus 1) (Q7ZJM1 as listed by the source): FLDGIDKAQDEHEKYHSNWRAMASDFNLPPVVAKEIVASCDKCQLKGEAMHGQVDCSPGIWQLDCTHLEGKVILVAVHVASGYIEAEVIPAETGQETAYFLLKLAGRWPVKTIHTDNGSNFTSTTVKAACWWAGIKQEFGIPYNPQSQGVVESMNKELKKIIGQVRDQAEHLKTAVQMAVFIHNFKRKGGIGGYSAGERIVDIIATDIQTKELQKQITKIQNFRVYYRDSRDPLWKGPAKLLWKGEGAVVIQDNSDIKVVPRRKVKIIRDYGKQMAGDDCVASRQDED

Structure (SMILES)	Activity [1]	Activity [2]
CC[C@H](C)[C@H](NC(=O)[C@H](Cc1ccccc1)NC(=O)[C@@H](NC(=O)[C@H](C)NC(=O)[C@H](CCSC)NC(=O)[C@@H](N)CCC(N)=O)C(C)C)C(=O)N[C@@H](Cc1cnc[nH]1)C(=O)N[C@@H](CC(N)=O)C(=O)N[C@@H](Cc1ccccc1)C(=O)N[C@@H](CCCCN)C(=O)N[C@@H](CCCNC(=N)N)C(=O)N[C@@H](CCCCN)C(=O)O (H-QMAVFIHNFKRK-OH)	122%	135%
CC[C@H](C)[C@H](NC(=O)[C@H](Cc1ccccc1)NC(=O)[C@@H](NC(=O)[C@H](C)NC(=O)[C@H](CCSC)NC(=O)[C@H](CCC(N)=O)NC(=O)[C@H](C)NC(=O)[C@H](C)NC(=O)[C@@H](N)[C@@H](C)O)C(C)C)C(=O)N[C@@H](Cc1cnc[nH]1)C(=O)N[C@@H](CC(N)=O)C(=O)N[C@@H](Cc1ccccc1)C(=O)N[C@@H](CCCCN)C(=O)N[C@@H](CCCNC(=N)N)C(=O)N[C@@H](CCCCN)C(=O)O (H-TAAQMAVFIHNFKRK-OH)	115%	106%
CC[C@H](C)[C@H](NC(=O)[C@H](Cc1ccccc1)NC(=O)[C@@H](NC(=O)[C@H](C)NC(=O)[C@H](CCSC)NC(=O)[C@H](C)NC(=O)[C@@H](NC(=O)[C@H](C)NC(=O)[C@@H](N)[C@@H](C)O)C(C)C)C(C)C)C(=O)N[C@@H](Cc1cnc[nH]1)C(=O)N[C@@H](CC(N)=O)C(=O)N[C@@H](Cc1ccccc1)C(=O)N[C@@H](CCCCN)C(=O)N[C@@H](CCCNC(=N)N)C(=O)N[C@@H](CCCCN)C(=O)O (H-TAVAMAVFIHNFKRK-OH)	83%	79%
CC[C@H](C)[C@H](NC(=O)[C@H](Cc1ccccc1)NC(=O)[C@@H](NC(=O)[C@H](C)NC(=O)[C@H](C)NC(=O)[C@H](CCC(N)=O)NC(=O)[C@@H](NC(=O)[C@H](C)NC(=O)[C@@H](N)[C@@H](C)O)C(C)C)C(C)C)C(=O)N[C@@H](Cc1cnc[nH]1)C(=O)N[C@@H](CC(N)=O)C(=O)N[C@@H](Cc1ccccc1)C(=O)N[C@@H](CCCCN)C(=O)N[C@@H](CCCNC(=N)N)C(=O)N[C@@H](CCCCN)C(=O)O (H-TAVQAAVFIHNFKRK-OH)	113%	172%
CC[C@H](C)[C@H](NC(=O)[C@H](Cc1ccccc1)NC(=O)[C@H](C)NC(=O)[C@H](C)NC(=O)[C@H](CCSC)NC(=O)[C@H](CCC(N)=O)NC(=O)[C@@H](NC(=O)[C@H](C)NC(=O)[C@@H](N)[C@@H](C)O)C(C)C)C(=O)N[C@@H](Cc1cnc[nH]1)C(=O)N[C@@H](CC(N)=O)C(=O)N[C@@H](Cc1ccccc1)C(=O)N[C@@H](CCCCN)C(=O)N[C@@H](CCCNC(=N)N)C(=O)N[C@@H](CCCCN)C(=O)O (H-TAVQMAAFIHNFKRK-OH)	123%	222%
CC[C@H](C)[C@H](NC(=O)[C@H](C)NC(=O)[C@@H](NC(=O)[C@H](C)NC(=O)[C@H](CCSC)NC(=O)[C@H](CCC(N)=O)NC(=O)[C@@H](NC(=O)[C@H](C)NC(=O)[C@@H](N)[C@@H](C)O)C(C)C)C(C)C)C(=O)N[C@@H](Cc1cnc[nH]1)C(=O)N[C@@H](CC(N)=O)C(=O)N[C@@H](Cc1ccccc1)C(=O)N[C@@H](CCCCN)C(=O)N[C@@H](CCCNC(=N)N)C(=O)N[C@@H](CCCCN)C(=O)O (H-TAVQMAVAIHNFKRK-OH)	104%	216%
CSCC[C@H](NC(=O)[C@H](CCC(N)=O)NC(=O)[C@@H](NC(=O)[C@H](C)NC(=O)[C@@H](N)[C@@H](C)O)C(C)C)C(=O)N[C@@H](C)C(=O)N[C@H](C(=O)N[C@@H](Cc1ccccc1)C(=O)O)C(C)C (H-TAVQMAVF-OH)	0%	0%
CSCC[C@H](NC(=O)[C@H](CCC(N)=O)NC(=O)[C@@H](NC(=O)[C@H](C)NC(=O)[C@@H](N)[C@@H](C)O)C(C)C)C(=O)N[C@@H](C)C(=O)N[C@H](C(=O)N[C@@H](Cc1ccccc1)C(=O)N[C@@H](C)C(=O)N[C@@H](Cc1cnc[nH]1)C(=O)N[C@@H](CC(N)=O)C(=O)N[C@@H](Cc1ccccc1)C(=O)N[C@@H](CCCCN)C(=O)N[C@@H](CCCNC(=N)N)C(=O)N[C@@H](CCCCN)C(=O)O)C(C)C (H-TAVQMAVFAHNFKRK-OH)	156%	254%
CC[C@H](C)[C@H](NC(=O)[C@H](Cc1ccccc1)NC(=O)[C@@H](NC(=O)[C@H](C)NC(=O)[C@H](CCSC)NC(=O)[C@H](CCC(N)=O)NC(=O)[C@@H](NC(=O)[C@H](C)NC(=O)[C@@H](N)[C@@H](C)O)C(C)C)C(C)C)C(=O)O (H-TAVQMAVFI-OH)	0%	0%
CC[C@H](C)[C@H](NC(=O)[C@H](Cc1ccccc1)NC(=O)[C@@H](NC(=O)[C@H](C)NC(=O)[C@H](CCSC)NC(=O)[C@H](CCC(N)=O)NC(=O)[C@@H](NC(=O)[C@H](C)NC(=O)[C@@H](N)[C@@H](C)O)C(C)C)C(C)C)C(=O)N[C@@H](C)C(=O)N[C@@H](CC(N)=O)C(=O)N[C@@H](Cc1ccccc1)C(=O)N[C@@H](CCCCN)C(=O)N[C@@H](CCCNC(=N)N)C(=O)N[C@@H](CCCCN)C(=O)O (H-TAVQMAVFIANFKRK-OH)	122%	121%
CC[C@H](C)[C@H](NC(=O)[C@H](Cc1ccccc1)NC(=O)[C@@H](NC(=O)[C@H](C)NC(=O)[C@H](CCSC)NC(=O)[C@H](CCC(N)=O)NC(=O)[C@@H](NC(=O)[C@H](C)NC(=O)[C@@H](N)[C@@H](C)O)C(C)C)C(C)C)C(=O)N[C@@H](Cc1cnc[nH]1)C(=O)O (H-TAVQMAVFIH-OH)	0%	0%
CC[C@H](C)[C@H](NC(=O)[C@H](Cc1ccccc1)NC(=O)[C@@H](NC(=O)[C@H](C)NC(=O)[C@H](CCSC)NC(=O)[C@H](CCC(N)=O)NC(=O)[C@@H](NC(=O)[C@H](C)NC(=O)[C@@H](N)[C@@H](C)O)C(C)C)C(C)C)C(=O)N[C@@H](Cc1cnc[nH]1)C(=O)N[C@@H](C)C(=O)N[C@@H](Cc1ccccc1)C(=O)N[C@@H](CCCCN)C(=O)N[C@@H](CCCNC(=N)N)C(=O)N[C@@H](CCCCN)C(=O)O (H-TAVQMAVFIHAFKRK-OH)	33%	105%
CC[C@H](C)[C@H](NC(=O)[C@H](Cc1ccccc1)NC(=O)[C@@H](NC(=O)[C@H](C)NC(=O)[C@H](CCSC)NC(=O)[C@H](CCC(N)=O)NC(=O)[C@@H](NC(=O)[C@H](C)NC(=O)[C@@H](N)[C@@H](C)O)C(C)C)C(C)C)C(=O)N[C@@H](Cc1cnc[nH]1)C(=O)N[C@@H](CC(N)=O)C(=O)O (H-TAVQMAVFIHN-OH)	0%	0%
CC[C@H](C)[C@H](NC(=O)[C@H](Cc1ccccc1)NC(=O)[C@@H](NC(=O)[C@H](C)NC(=O)[C@H](CCSC)NC(=O)[C@H](CCC(N)=O)NC(=O)[C@@H](NC(=O)[C@H](C)NC(=O)[C@@H](N)[C@@H](C)O)C(C)C)C(C)C)C(=O)N[C@@H](Cc1cnc[nH]1)C(=O)N[C@@H](CC(N)=O)C(=O)N[C@@H](C)C(=O)N[C@@H](CCCCN)C(=O)N[C@@H](CCCNC(=N)N)C(=O)N[C@@H](CCCCN)C(=O)O (H-TAVQMAVFIHNAKRK-OH)	134%	193%
CC[C@H](C)[C@H](NC(=O)[C@H](Cc1ccccc1)NC(=O)[C@@H](NC(=O)[C@H](C)NC(=O)[C@H](CCSC)NC(=O)[C@H](CCC(N)=O)NC(=O)[C@@H](NC(=O)[C@H](C)NC(=O)[C@@H](N)[C@@H](C)O)C(C)C)C(C)C)C(=O)N[C@@H](Cc1cnc[nH]1)C(=O)N[C@@H](CC(N)=O)C(=O)N[C@@H](Cc1ccccc1)C(=O)O (H-TAVQMAVFIHNF-OH)	0%	0%
CC[C@H](C)[C@H](NC(=O)[C@H](Cc1ccccc1)NC(=O)[C@@H](NC(=O)[C@H](C)NC(=O)[C@H](CCSC)NC(=O)[C@H](CCC(N)=O)NC(=O)[C@@H](NC(=O)[C@H](C)NC(=O)[C@@H](N)[C@@H](C)O)C(C)C)C(C)C)C(=O)N[C@@H](Cc1cnc[nH]1)C(=O)N[C@@H](CC(N)=O)C(=O)N[C@@H](Cc1ccccc1)C(=O)N[C@@H](C)C(=O)N[C@@H](CCCNC(=N)N)C(=O)N[C@@H](CCCCN)C(=O)O (H-TAVQMAVFIHNFARK-OH)	91%	176%
CC[C@H](C)[C@H](NC(=O)[C@H](Cc1ccccc1)NC(=O)[C@@H](NC(=O)[C@H](C)NC(=O)[C@H](CCSC)NC(=O)[C@H](CCC(N)=O)NC(=O)[C@@H](NC(=O)[C@H](C)NC(=O)[C@@H](N)[C@@H](C)O)C(C)C)C(C)C)C(=O)N[C@@H](Cc1cnc[nH]1)C(=O)N[C@@H](CC(N)=O)C(=O)N[C@@H](Cc1ccccc1)C(=O)N[C@@H](CCCCN)C(=O)O (H-TAVQMAVFIHNFK-OH)	120%	127%
CC[C@H](C)[C@H](NC(=O)[C@H](Cc1ccccc1)NC(=O)[C@@H](NC(=O)[C@H](C)NC(=O)[C@H](CCSC)NC(=O)[C@H](CCC(N)=O)NC(=O)[C@@H](NC(=O)[C@H](C)NC(=O)[C@@H](N)[C@@H](C)O)C(C)C)C(C)C)C(=O)N[C@@H](Cc1cnc[nH]1)C(=O)N[C@@H](CC(N)=O)C(=O)N[C@@H](Cc1ccccc1)C(=O)N[C@@H](CCCCN)C(=O)N[C@@H](C)C(=O)N[C@@H](CCCCN)C(=O)O (H-TAVQMAVFIHNFKAK-OH)	127%	234%
CC[C@H](C)[C@H](NC(=O)[C@H](Cc1ccccc1)NC(=O)[C@@H](NC(=O)[C@H](C)NC(=O)[C@H](CCSC)NC(=O)[C@H](CCC(N)=O)NC(=O)[C@@H](NC(=O)[C@H](C)NC(=O)[C@@H](N)[C@@H](C)O)C(C)C)C(C)C)C(=O)N[C@@H](Cc1cnc[nH]1)C(=O)N[C@@H](CC(N)=O)C(=O)N[C@@H](Cc1ccccc1)C(=O)N[C@@H](CCCCN)C(=O)N[C@@H](CCCNC(=N)N)C(=O)O (H-TAVQMAVFIHNFKR-OH)	87%	114%
CC[C@H](C)[C@H](NC(=O)[C@H](Cc1ccccc1)NC(=O)[C@@H](NC(=O)[C@H](C)NC(=O)[C@H](CCSC)NC(=O)[C@H](CCC(N)=O)NC(=O)[C@@H](NC(=O)[C@H](C)NC(=O)[C@@H](N)[C@@H](C)O)C(C)C)C(C)C)C(=O)N[C@@H](Cc1cnc[nH]1)C(=O)N[C@@H](CC(N)=O)C(=O)N[C@@H](Cc1ccccc1)C(=O)N[C@@H](CCCCN)C(=O)N[C@@H](CCCNC(=N)N)C(=O)N[C@@H](C)C(=O)O (H-TAVQMAVFIHNFKRA-OH)	109%	209%
